Source: patent publication EP0804408B1, “NOVEL 4-SUBSTITUTED 2,6-DI-TERT-BUTYLPHENOL COMPOUNDS, PHARMACEUTICAL COMPOSITIONS CONTAINING SAME AND PREPARATION METHOD THEREFOR” (priority 1994, dated 1996)
Marks after values point to notes of the source that are not given here.

Legend:
[1] = system: cellules MT4; test: Cytotoxicity control on MT4 cells (uncontaminated AVF1 samples, diluted and ultracentrifuged); assay type: cell-based, humaines; conditions: non contaminé, dilué et centrifugé, inoculated at dilution 1/4, 10 days culture
Experimental: • Contrôles négatifs : • . Les cellules utilisées pour le titrage, non infectées (culture témoin). • . les trois concentrations de AVF1 utilisées dans l'étude, diluées en tampon NTE et ultracentrifugées. Ces échantillons (contrôles négatifs) ont été utilisés pour vérifier l'absence de toxicité due à des traces résiduelles de AVF1, sur les cellules MT4. • Contrôles positifs : • . Le VIH-1 dilué en milieu de culture à la dilution réalisée pour l'étude, immédiatement aliquoté et stocké à -80°C (contrôle positif). • . Le VIH-1 dilué en milieu de culture à la dilution réalisée pour l'étude, puis dilué en tampon NTE, ultracentrifugé, filtré sur un filtre de 0,45 µm, aliquoté, stocké à -80°C et titré ultérieurement (contrôle de centrifugation). • . Le VIH-1 dilué en milieu de culture à la dilution réalisée pour l'étude, laissé 10 minutes à température ambiante, puis dilué en tampon NTE, ultracentrifugé, filtré sur un filtre de 0,45 µm, aliquoté, stocké à -80°C et titré ultérieurement (contrôle expérimental).
Le contrôle de toxicité a été réalisé dans des conditions identiques à celles décrites pour la méthode de titrage, mais en inoculant les cellules MT4 avec les échantillons non contaminés par le VIH-1 et décrits précédemment (contrôle négatif).
Le critère de non toxicité du produit est établi a été établi en comparant l'aspect morphologique et la viabilité des cellules MT4 inoculées avec du milieu de culture (culture témoin) ou avec les échantillons non contaminés (contrôles négatifs) après 10 jours de culture.

[2] = system: NO-synthase inductible (iNOS); test: iNOS induction test: nitrites in RAW264.7 supernatants by Griess reaction after nitrate reduction; assay type: cell-based, murins
From the text: Cette hypothèse a été contrôlée en dosant les nitrites dans des surnageants de culture de macrophages murins de lignées activées en présence de AVF1. Les nitrites ont été dosés par la réaction de Griess après réduction de tous le nitrates grâce à la nitrate réductase de Pseudomonas oleoverans (Granger et al., J. Immunol., 1991, 146, 1294-1302). La spécificité de la réaction a été prouvée par l'emploi d'un inhibiteur spécifique de la synthèse du monoxyde d'azote, la N^G-monométhyl-L-arginine (L-NMMA).
Le test d'induction iNOS consiste à ensemencer les macrophages RAW264.7 dans des plaques à 24 puits à raison de 1 x 10^6 sous 1,6 ml. Après 24 heures de culture permettant d'obtenir un tapis cellulaire complet, AVF1, dilué de raison 10 dans des des doses ne donnant pas de toxicité cellulaire (de 10^-6 à 10^-8 %), est ajouté dans 100 µl par cupule soit sur des macrophages sans activateur, avec ou sans l'inhibiteur de iNOS (action directe du produit sur les macrophages) soit en présence des inducteurs, avec ou sans inhibiteur (action du produit sur des macrophages activés).
Après 24 heures de culture, les surnageants sont prélevés, centrifugés 10 minutes à 100 g à température ambiantes pour éliminer les éventuels débris cellulaires puis utilisés pour le dosage des nitrites.
Deux volumes des surnageants clarifiés sont réduits en présence d'un volume d'une suspension de Pseudomonas oleovorans à 100 mg/ml et un volume de D-MEM sans rouge de phénol. Après une incubation de 90 minutes à 37°C sans agitation, les mélanges sont centrifugés 5 minutes à 4 000 g pour éliminer les bactéries et dilués au 1/5 et au 1/10 en eau distillée stérile.
100 µl des échantillons réduits et dilués sont distribués dans des séries de 2 puits dans une plaque ELISA (maxicorp, Nunc.). 200 µl du réactif de Griess (mélange ex-temporané volume à volume des solutions de sulfamide à 1,5 g/100 ml de HCl 1,2 N (87,1 mM) - réactif A - et de naphtylènediamine à 0,15 g/100 ml d'eau stérile (5,78 mM) - réactif B -) sont ajoutés.
Cent autres µl d'échantillon servant de blanc de DO sont distribués et mélangés à 200 µl d'un mélange ex-temporané volume à volume d'eau distillée et du réactif colorimétrique A.
Après 30 minutes à température ambiante à l'obscurité, la densité optique (DO) des échantillons est lue à 540 nm au lecteur de plaque pour ELISA.
• Les contrôles du système d'induction iNOS sont composés de : • . Témoin cellules consistant en des macrophages ne recevant que du milieu de culture. • . Témoin d'induction consistant en des macrophages traités par 100 µl de lipopolysaccharide (LPS à 4 µg/ml, Difco) et par 100 µl d'interféron-γ recombinant (IFN-γ à 1 µU/ml, Boerhinger-Mannheim) afin d'activer la iNOS (Schmidt et al., Mol. Pharmacol., 1992, 41, 614-624). Les solutions mères de LPS et de IFN-γont été conservées respectivement à +4°C et à -20°C avant utilisation. • . Témoin d'inhibition spécifique pour prouver que les nitrites dosés proviennent de l'activation de la iNOS. Il consiste à incorporer à la culture un inhibiteur spécifique, la L-NMMA (N^G-monométhyl-L-arginine, Calbiochem) (Hibbs et al., Science, 1987, 235, 473-476) à des concentrations de raison 10 allant de 3 à 300 µM. Cette solution a été conservée sous parties aliquotes à -20°C avant utilisation. • Les contrôles de la réaction de Greiss sont composés de : • . Une solution de nitrate de sodium qui permet de contrôler l'activité nitrate-réductase des bactéries. • . Une gamme étalon de nitrite de sodium qui permet de doser les nitrites dans les échantillons. • Le blanc de DO de la gamme étalon contenant 100 µl d'eau distillée et 200 µl du mélange des réactifs A et B.

[3] = AVF1 1 x 10^-6 % (10 nM), IFNγ + LPS + L-NMMA (3 µM)
[4] = AVF1 1 x 10^-6 % (10 nM), IFNγ + LPS + L-NMMA (30 µM)
[5] = AVF1 1 x 10^-6 % (10 nM), IFNγ + LPS + L-NMMA (300 µM)
[6] = AVF1 1 x 10^-7 % (1 nM), IFNγ + LPS + L-NMMA (30 µM)
[7] = AVF1 1 x 10^-7 % (1 nM), IFNγ + LPS + L-NMMA (300 µM)
[8] = AVF1 1 x 10^-8 % (0,1 nM), IFNγ + LPS + L-NMMA (3 µM)
[9] = AVF1 1 x 10^-8 % (0,1 nM), IFNγ + LPS + L-NMMA (300 µM)

## CC(C)(C)c1cc(C(=O)OCCOCCOCCOCCOCCOCCOCCOCCO)cc(C(C)(C)C)c1O [AVF1, 3,5-di-t-butyl-4-hydroxybenzoate d'octaoxyéthylèneglycol]
[1]; AVF1 dilué à 0,5%
  Remarques (toxicité sur cellules MT4): Non toxique (échantillon inoculé à la dilution 1/4)
[1]; AVF1 dilué à 1%
  Remarques (toxicité sur cellules MT4): Non toxique (échantillon inoculé à la dilution 1/4)
[1]; AVF1 dilué à 2%
  Remarques (toxicité sur cellules MT4): Non toxique (échantillon inoculé à la dilution 1/4)
[2]; AVF1 1 x 10^-6 % (10 nM), IFNγ + LPS
  Concentration moyenne en nitrites en µM sur 2 échantillons: 20,9 µM
[2]; [3]
  Concentration moyenne en nitrites en µM sur 2 échantillons: 5,3 µM
  Pourcentage d'inhibition de la production de nitrite: 74%
[2]; [4]
  Concentration moyenne en nitrites en µM sur 2 échantillons: 6,3 µM
  Pourcentage d'inhibition de la production de nitrite: 70%
[2]; [5]
  Concentration moyenne en nitrites en µM sur 2 échantillons: 4,8 µM
  Pourcentage d'inhibition de la production de nitrite: 77%
[2]; AVF1 1 x 10^-6 % (10 nM), cells: Milieu (no activator)
  Concentration moyenne en nitrites en µM sur 2 échantillons: 5,0* µM
[2]; AVF1 1 x 10^-7 % (1 nM), IFNγ + LPS
  Concentration moyenne en nitrites en µM sur 2 échantillons: 19,5 µM
[2]; AVF1 1 x 10^-7 % (1 nM), IFNγ + LPS + L-NMMA (3 µM)
  Concentration moyenne en nitrites en µM sur 2 échantillons: 5,1 µM
[2]; [6]
  Concentration moyenne en nitrites en µM sur 2 échantillons: 4,9 µM
  Pourcentage d'inhibition de la production de nitrite: 76%
[2]; [7]
  Concentration moyenne en nitrites en µM sur 2 échantillons: 5,8 µM
  Pourcentage d'inhibition de la production de nitrite: 72%
[2]; AVF1 1 x 10^-7 % (1 nM), cells: Milieu (no activator)
  Concentration moyenne en nitrites en µM sur 2 échantillons: 4,8* µM
[2]; AVF1 1 x 10^-8 % (0,1 nM), IFNγ + LPS
  Concentration moyenne en nitrites en µM sur 2 échantillons: 21,6 µM
[2]; [8]
  Concentration moyenne en nitrites en µM sur 2 échantillons: 5,0 µM
  Pourcentage d'inhibition de la production de nitrite: 76%
[2]; AVF1 1 x 10^-8 % (0,1 nM), IFNγ + LPS + L-NMMA (30 µM)
  Concentration moyenne en nitrites en µM sur 2 échantillons: 5,2 µM
[2]; [9]
  Concentration moyenne en nitrites en µM sur 2 échantillons: 5,5 µM
  Pourcentage d'inhibition de la production de nitrite: 74%
[2]; AVF1 1 x 10^-8 % (0,1 nM), cells: Milieu (no activator)
  Concentration moyenne en nitrites en µM sur 2 échantillons: 5,6* µM
[2]; AVF1 from 10^-6 % downwards, non-activated macrophages, nitrites in supernatants
  induction de monoxyde d'azote (NO) dans les macrophages: n'induit pas de monoxyde d'azote (NO)
[2]; Mus musculus, RAW264.7, AVF1 1 x 10^-6 % (10 nM), IFNγ + LPS, read-out: Pourcentage d'inhibition de la production de nitrite
  inhibition at 0.01 µM: 0%
[2]; Mus musculus, RAW264.7, AVF1 1 x 10^-7 % (1 nM), IFNγ + LPS, read-out: Pourcentage d'inhibition de la production de nitrite
  inhibition at 0.001 µM: 6%
[2]; macrophages activated by LPS + IFN-γ
  action sur le niveau de production de NO: n'a aucune action sur le niveau de production
